What was measured:
HT-29 [1] = test: Growth inhibition of human HT-29 cells assessed as cell growth at 10 uM incubated for 48 hrs by sulforhodamine B assay relative to control; assay type: functional; details: HT-29, 48 h, read-out: Activity
CCRF-CEM = test: Growth inhibition of human CCRF-CEM cells incubated for 48 hrs by sulforhodamine B assay; assay type: functional, cell-based
HOP-62 = test: Growth inhibition of human HOP62 cells incubated for 48 hrs by sulforhodamine B assay; assay type: functional, cell-based; details: HOP-62, 48 h
NCI-H23 = test: Growth inhibition of human NCI-H23 cells incubated for 48 hrs by sulforhodamine B assay; assay type: functional, cell-based; details: NCI-H23, 48 h
NCI-H460 = test: Growth inhibition of human NCI-H460 cells incubated for 48 hrs by sulforhodamine B assay; assay type: functional, cell-based; details: NCI-H460, 48 h
SW-620 = test: Growth inhibition of human SW620 cells incubated for 48 hrs by sulforhodamine B assay; assay type: functional, cell-based; details: SW-620, 48 h
M14 = test: Growth inhibition of human M14 cells incubated for 48 hrs by sulforhodamine B assay; assay type: functional, cell-based; details: M14, 48 h
SK-MEL-5 = test: Growth inhibition of human SK-MEL-5 cells incubated for 48 hrs by sulforhodamine B assay; assay type: functional, cell-based; details: SK-MEL-5, 48 h
SF-539 [2] = test: Growth inhibition of human SF539 cells assessed as cell growth at 0.01 uM incubated for 48 hrs by sulforhodamine B assay relative to control; assay type: functional; details: SF-539, 48 h, read-out: Activity
SK-MEL-28 = test: Growth inhibition of human SK-MEL-28 cells assessed as cell growth at 0.01 uM incubated for 48 hrs by sulforhodamine B assay relative to control; assay type: functional; details: SK-MEL-28, 48 h, read-out: Activity
OVCAR-4 [3] = test: Growth inhibition of human OVCAR4 cells assessed as cell growth at 0.01 uM incubated for 48 hrs by sulforhodamine B assay relative to control; assay type: functional; details: OVCAR-4, 48 h, read-out: Activity
NCI-H522 = test: Growth inhibition of human NCI-H522 cells assessed as cell growth at 0.1 uM incubated for 48 hrs by sulforhodamine B assay relative to control; assay type: functional; details: NCI-H522, 48 h, read-out: Activity
COLO 205 = test: Growth inhibition of human COLO205 cells assessed as cell growth at 0.1 uM incubated for 48 hrs by sulforhodamine B assay relative to control; assay type: functional; details: COLO 205, 48 h, read-out: Activity
HT-29 [4] = test: Growth inhibition of human HT-29 cells assessed as cell growth at 0.1 uM incubated for 48 hrs by sulforhodamine B assay relative to control; assay type: functional; details: HT-29, 48 h, read-out: Activity
SF-539 [5] = test: Growth inhibition of human SF539 cells assessed as cell growth at 0.1 uM incubated for 48 hrs by sulforhodamine B assay relative to control; assay type: functional; details: SF-539, 48 h, read-out: Activity
Malme-3M = test: Growth inhibition of human MALME-3M cells assessed as cell growth at 0.1 uM incubated for 48 hrs by sulforhodamine B assay relative to control; assay type: functional; details: read-out: Activity
UACC-257 = test: Growth inhibition of human UACC257 cells assessed as cell growth at 0.1 uM incubated for 48 hrs by sulforhodamine B assay relative to control; assay type: functional; details: UACC-257, 48 h, read-out: Activity
OVCAR-4 [6] = test: Growth inhibition of human OVCAR4 cells assessed as cell growth at 0.1 uM incubated for 48 hrs by sulforhodamine B assay relative to control; assay type: functional; details: OVCAR-4, 48 h, read-out: Activity
OVCAR-5 = test: Growth inhibition of human OVCAR5 cells assessed as cell growth at 0.1 uM incubated for 48 hrs by sulforhodamine B assay relative to control; assay type: functional; details: OVCAR-5, 48 h, read-out: Activity
CAKI-1 = test: Growth inhibition of human Caki1 cells assessed as cell growth at 0.1 uM incubated for 48 hrs by sulforhodamine B assay relative to control; assay type: functional; details: CAKI-1, 48 h, read-out: Activity
PC-3 = test: Growth inhibition of human PC3 cells assessed as cell growth at 0.1 uM incubated for 48 hrs by sulforhodamine B assay relative to control; assay type: functional; details: PC-3, 48 h, read-out: Activity
A549 = test: Growth inhibition of human A549/ATCC cells assessed as cell growth at 1 uM incubated for 48 hrs by sulforhodamine B assay relative to control; assay type: functional; details: A549, 48 h, read-out: Activity
HCC 2998 [7] = test: Growth inhibition of human HCC2998 cells assessed as cell growth at 1 uM incubated for 48 hrs by sulforhodamine B assay relative to control; assay type: functional; details: HCC 2998, 48 h, read-out: Activity
T47D = test: Growth inhibition of human T47D cells assessed as cell growth at 1 uM incubated for 48 hrs by sulforhodamine B assay relative to control; assay type: functional; details: read-out: Activity
NCI-H322M = test: Growth inhibition of human NCI-H322M cells assessed as cell growth at 100 uM incubated for 48 hrs by sulforhodamine B assay relative to control; assay type: functional; details: read-out: Activity
HCC 2998 [8] = test: Growth inhibition of human HCC2998 cells assessed as cell growth at 100 uM incubated for 48 hrs by sulforhodamine B assay relative to control; assay type: functional; details: HCC 2998, 48 h, read-out: Activity
U-251 = test: Growth inhibition of human U251 cells assessed as cell growth at 100 uM incubated for 48 hrs by sulforhodamine B assay relative to control; assay type: functional; details: U-251, 48 h, read-out: Activity
DU-145 = test: Growth inhibition of human DU145 cells assessed as cell growth at 100 uM incubated for 48 hrs by sulforhodamine B assay relative to control; assay type: functional; details: DU-145, 48 h, read-out: Activity
MDA-MB-231 = test: Growth inhibition of human MDA-MB-231 cells assessed as cell growth at 100 uM incubated for 48 hrs by sulforhodamine B assay relative to control; assay type: functional; details: MDA-MB-231, 48 h, read-out: Activity
[9] = read-out: LC50 (the source's name)
[10] = read-out: pLC50 (the source's name) (converted)

In the case of `COc1cc(Cl)cc(-c2nn(-c3cccc(NC(=O)Nc4ccc(Cl)c(C(F)(F)F)c4)c3)cc2-c2ccncc2)c1`, the growth at 10 µM (HT-29 [1]) was 5.57%, the GI50 (CCRF-CEM; read-out: GI50) was 613 nM and the CC50 (CCRF-CEM; [9]) was over 100 µM. The TGI (CCRF-CEM; read-out: TGI) was 35.5 µM, the CC50 (CCRF-CEM; [10]) was over 100 µM and the GI50 (HOP-62; read-out: GI50) was 2120 nM. It also gave a CC50 (HOP-62; [9]) of over 100 µM, a TGI (HOP-62; read-out: TGI) of 63.2 µM and a GI50 (HOP-62; read-out: pGI50 (converted)) of 2140 nM. It also gave a CC50 (HOP-62; [10]) of over 100 µM, a TGI (HOP-62; read-out: pTGI (converted)) of 6.31 µM and a GI50 (NCI-H23; read-out: GI50) of 1360 nM. It also gave an LC50 (NCI-H23; read-out: LC50) of over 100 µM, a TGI (NCI-H23; read-out: TGI) of 62.3 µM and a GI50 (NCI-H23; read-out: pGI50 (converted)) of 1350 nM. For the same molecule, the LC50 (NCI-H23; read-out: pLC50 (converted)) was over 100 µM, the TGI (NCI-H23; read-out: pTGI (converted)) was 6.17 µM and the GI50 (NCI-H460; read-out: GI50) was 770 nM. The CC50 (NCI-H460; [9]) was 4.48 µM, the TGI (NCI-H460; read-out: TGI) was 40 µM and the CC50 (NCI-H460; [10]) was 44.7 µM. It also gave a GI50 (SW-620; read-out: GI50) of 1510 nM, an LC50 (SW-620; read-out: LC50) of 5.78 µM and a TGI (SW-620; read-out: TGI) of 10.5 µM. For the same molecule, the GI50 (SW-620; read-out: pGI50 (converted)) was 1620 nM, the LC50 (SW-620; read-out: pLC50 (converted)) was 57.5 µM and the TGI (SW-620; read-out: pTGI (converted)) was 10.5 µM. For the same molecule, the GI50 (M14; read-out: GI50) was 1330 nM, the CC50 (M14; [9]) was 0.05 µM and the TGI (M14; read-out: TGI) was 34.7 µM. It also gave a GI50 (M14; read-out: pGI50 (converted)) of 1320 nM, a CC50 (M14; [10]) of 9.12 µM and a TGI (M14; read-out: pTGI (converted)) of 8.51 µM. The GI50 (SK-MEL-5; read-out: GI50) was 1540 nM, the CC50 (SK-MEL-5; [9]) was 5.58 µM and the TGI (SK-MEL-5; read-out: TGI) was 29.3 µM. For the same molecule, the GI50 (SK-MEL-5; read-out: pGI50 (converted)) was 1550 nM, the CC50 (SK-MEL-5; [10]) was 5.62 µM and the TGI (SK-MEL-5; read-out: pTGI (converted)) was 8.32 µM. The growth at 0.01 µM (SF-539 [2]) was 96%, the growth at 0.01 µM (SK-MEL-28) was 98% and the growth at 0.01 µM (OVCAR-4 [3]) was 99%. The growth at 0.1 µM (NCI-H522) was 77%, the growth at 0.1 µM (COLO 205) was 99% and the growth at 0.1 µM (HT-29 [4]) was 94%. It also gave a growth at 0.1 µM (SF-539 [5]) of 91%, a growth at 0.1 µM (Malme-3M) of 79% and a growth at 0.1 µM (UACC-257) of 59%. It also gave a growth at 0.1 µM (OVCAR-4 [6]) of 97%, a growth at 0.1 µM (OVCAR-5) of 73% and a growth at 0.1 µM (CAKI-1) of 99%. For the same molecule, the growth at 0.1 µM (PC-3) was 91%, the growth at 1 µM (A549) was 40% and the growth at 1 µM (HCC 2998 [7]) was 97%. For the same molecule, the growth at 1 µM (T47D) was 58%, the growth at 100 µM (NCI-H322M) was -22% and the growth at 100 µM (HCC 2998 [8]) was -75%. For the same molecule, the growth at 100 µM (U-251) was -100%, the growth at 100 µM (DU-145) was -71% and the growth at 100 µM (MDA-MB-231) was -88%.

`COc1cc(Cl)cc(-c2nn(-c3cccc(NC(=O)c4ccc(Cl)c(Cl)c4)c3)cc2-c2ccncc2)c1` was tested, and the growth at 10 µM (HT-29 [1]) was 56.4%.

Source: ChEMBL document CHEMBL4308841, “Synthesis, in vitro antiproliferative activity, and kinase inhibitory effects of pyrazole-containing diarylureas and diarylamides” (Eur J Med Chem, 2018)
